In ChEMBL document CHEMBL1909294, “Translating clinical findings into knowledge in drug safety evaluation--drug induced liver injury prediction system (DILIps)” (PLoS Comput Biol, 2011):

How the values were obtained:
[1] = tested on: Hepatotoxicity;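 on HepSE cholecystitis: Cholecystitis-related hepatic side effect score drawn from the DILIps (drug-induced liver injury prediction) training data set; call rule not given here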;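 on HepSE cirrhosis: cirrhosis hepatic side effect score taken from the DILIps (drug-induced liver injury prediction) training set; call rule not given here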;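 on HepSE elevated liver function tests: hepatic side effect score for raised liver function tests, as recorded in the DILIps training set used for predicting drug-induced liver injury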;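 on HepSE jaundice: Jaundice-related hepatic side-effect score drawn from the training data of the DILIps (drug-induced liver injury prediction system); call rule not given here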; on HepSE liver disease: call rule not given here;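 on HepSE liver fatty: hepatic side effect score for fatty liver, taken from the DILIps training set for predicting drug-induced liver injury; call rule not given here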;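 on HepSE liver function tests abnormal: hepatic side effect score taken from the DILIps (drug-induced liver injury prediction system) training data, here covering abnormal liver function test findings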
[2] = tested on: Hepatotoxicity; remark: listed apart in the source;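 on HepSE cholecystitis: Cholecystitis-related hepatic side effect score drawn from the DILIps (drug-induced liver injury prediction) training data set; call rule not given here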;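 on HepSE cirrhosis: cirrhosis hepatic side effect score taken from the DILIps (drug-induced liver injury prediction) training set; call rule not given here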;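 on HepSE elevated liver function tests: hepatic side effect score for raised liver function tests, as recorded in the DILIps training set used for predicting drug-induced liver injury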;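 on HepSE jaundice: Jaundice-related hepatic side-effect score drawn from the training data of the DILIps (drug-induced liver injury prediction system); call rule not given here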; on HepSE liver disease: call rule not given here;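 on HepSE liver function tests abnormal: hepatic side effect score taken from the DILIps (drug-induced liver injury prediction system) training data, here covering abnormal liver function test findings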
[3] = tested on: Hepatotoxicity; remark: listed apart in the source;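 on HepSE cholecystitis: Cholecystitis-related hepatic side effect score drawn from the DILIps (drug-induced liver injury prediction) training data set; call rule not given here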;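 on HepSE cirrhosis: cirrhosis hepatic side effect score taken from the DILIps (drug-induced liver injury prediction) training set; call rule not given here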;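 on HepSE elevated liver function tests: hepatic side effect score for raised liver function tests, as recorded in the DILIps training set used for predicting drug-induced liver injury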;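 on HepSE jaundice: Jaundice-related hepatic side-effect score drawn from the training data of the DILIps (drug-induced liver injury prediction system); call rule not given here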; on HepSE liver disease: call rule not given here;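 on HepSE liver function tests abnormal: hepatic side effect score taken from the DILIps (drug-induced liver injury prediction system) training data, here covering abnormal liver function test findings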
[4] = tested on: Hepatotoxicity; remark: listed apart in the source;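 on HepSE cholecystitis: Cholecystitis-related hepatic side effect score drawn from the DILIps (drug-induced liver injury prediction) training data set; call rule not given here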;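 on HepSE cirrhosis: cirrhosis hepatic side effect score taken from the DILIps (drug-induced liver injury prediction) training set; call rule not given here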;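 on HepSE elevated liver function tests: hepatic side effect score for raised liver function tests, as recorded in the DILIps training set used for predicting drug-induced liver injury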;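 on HepSE jaundice: Jaundice-related hepatic side-effect score drawn from the training data of the DILIps (drug-induced liver injury prediction system); call rule not given here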; on HepSE liver disease: call rule not given here;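 on HepSE liver function tests abnormal: hepatic side effect score taken from the DILIps (drug-induced liver injury prediction system) training data, here covering abnormal liver function test findings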
[5] = tested on: Hepatotoxicity; remark: listed apart in the source; on HepSE liver disease: call rule not given here
[6] = tested on: Hepatotoxicity; remark: listed apart in the source; on HepSE liver disease: call rule not given here
[7] = tested on: Hepatotoxicity; remark: listed apart in the source
[8] = tested on: Hepatotoxicity; remark: listed apart in the source
[9] = tested on: Hepatotoxicity; remark: listed apart in the source
[10] = tested on: Hepatotoxicity; remark: listed apart in the source
[11] = tested on: Hepatotoxicity; remark: listed apart in the source
[12] = tested on: Hepatotoxicity; remark: listed apart in the source
[13] = tested on: Hepatotoxicity; remark: listed apart in the source
[14] = tested on: Hepatotoxicity; remark: listed apart in the source

Row | Compound | HepSE_liver function tests abnormal [1] | HepSE_elevated liver function tests [2] | HepSE_cholecystitis [3] | HepSE_liver disease [4] | HepSE_cirrhosis [5] | HepSE_jaundice [6] | HepSE_liver fatty [7] | HepSE_Combined Scores [8] | HepSE_hepatic necrosis [9] | HepSE_cholelithiasis [10] | HepSE_hepatitis [11] | HepSE_bilirubinemia [12] | HepSE_hepatic failure [13] | HepSE_hepatomegaly [14] | also measured
1 | CC(=O)CC(c1ccccc1)c1c(O)c2ccccc2oc1=O (configuration not stated) [WARFARIN] | 0 | 0 | 0 | 0 | 0 | 1 | 0 | 2 | 0 | 0 | 1 | 0 | 0 | 0 | 
2 | COc1cc(C(=O)NS(=O)(=O)c2ccccc2C)ccc1Cc1cn(C)c2ccc(NC(=O)OC3CCCC3)cc12 [ZAFIRLUKAST] | 0 | 1 | 0 | 0 | 0 | 0 | 0 | 4 | 0 | 0 | 1 | 1 | 1 | 0 | 
3 | Nc1ccn([C@H]2CC[C@@H](CO)O2)c(=O)n1 [ZALCITABINE] |  |  |  |  |  |  |  |  |  |  |  |  |  |  | HepSE_liver function tests abnormal ([1]; Liver): 0; HepSE_elevated liver function tests ([2]; Liver): 0; HepSE_cholecystitis ([3]; Liver): 1; HepSE_liver disease ([4]; Liver): 0; HepSE_cirrhosis ([5]; Liver): 0; HepSE_jaundice ([6]; Liver): 1; HepSE_liver fatty ([7]; Liver): 0; HepSE_Combined Scores ([8]; Liver): 5; HepSE_hepatic necrosis ([9]; Liver): 0; HepSE_cholelithiasis ([10]; Liver): 0; HepSE_hepatitis ([11]; Liver): 1; HepSE_bilirubinemia ([12]; Liver): 1; HepSE_hepatic failure ([13]; Liver): 0; HepSE_hepatomegaly ([14]; Liver): 1
4 | CCN(C(C)=O)c1cccc(-c2ccnc3c(C#N)cnn23)c1 [ZALEPLON] | 1 | 0 | 0 | 0 | 0 | 0 | 0 | 3 | 0 | 1 | 0 | 1 | 0 | 0 | 
5 | CC(=O)N[C@H]1[C@H]([C@H](O)[C@H](O)CO)OC(C(=O)O)=C[C@@H]1N=C(N)N [ZANAMIVIR] | 0 | 0 | 0 | 0 | 0 | 0 | 0 | 0 | 0 | 0 | 0 | 0 | 0 | 0 | 
6 | Cc1cn([C@H]2C[C@H](N=[N+]=[N-])[C@@H](CO)O2)c(=O)[nH]c1=O [ZIDOVUDINE] | 0 | 0 | 0 | 0 | 0 | 1 | 0 | 4 | 0 | 0 | 1 | 1 | 0 | 1 | 
7 | O=C1Cc2cc(CCN3CCN(c4nsc5ccccc45)CC3)c(Cl)cc2N1 [ZIPRASIDONE] | 0 | 0 | 0 | 0 | 0 | 1 | 1 | 4 | 0 | 0 | 1 | 0 | 0 | 1 | 
8 | O.O=P(O)(O)C(O)(Cn1ccnc1)P(=O)(O)O [ZOLEDRONIC ACID] | 1 | 0 | 0 | 0 | 0 | 0 | 0 | 1 | 0 | 0 | 0 | 0 | 0 | 0 | 
9 | CN(C)CCc1c[nH]c2ccc(C[C@H]3COC(=O)N3)cc12 [ZOLMITRIPTAN] | 0 | 0 | 0 | 1 | 0 | 1 | 0 | 2 | 0 | 0 | 0 | 0 | 0 | 0 | 
10 | Cc1ccc(-c2nc3ccc(C)cn3c2CC(=O)N(C)C)cc1 [ZOLPIDEM] | 0 | 0 | 0 | 0 | 0 | 0 | 0 | 1 | 0 | 0 | 0 | 1 | 0 | 0 | 
11 | NS(=O)(=O)Cc1noc2ccccc12 [ZONISAMIDE] | 0 | 0 | 1 | 0 | 0 | 1 | 0 | 3 | 0 | 1 | 0 | 0 | 0 | 0 | 
12 | CN1CCN(C(=O)OC2c3nccnc3C(=O)N2c2ccc(Cl)cn2)CC1 (configuration not stated) [ZOPICLONE] | 0 | 0 | 0 | 0 | 0 | 0 | 0 | 3 | 0 | 1 | 1 | 0 | 0 | 1 | 
13 | AURANOFIN | 0 | 0 | 0 | 0 | 0 | 1 | 0 | 1 | 0 | 0 | 0 | 0 | 0 | 0 | 
